Tests used:
[1] = tested on: HDAC1, HDAC2, HDAC3 and HDAC6; test: HDAC selectivity of the inhibitor panel; format: biochemical; conditions: HDAC isoform(s) the inhibitor is selective for
Description: Compounds for testing are diluted in DMSO to 50 fold the final concentration and a ten point three fold dilution series is made. The compounds are diluted in assay buffer (50 mM HEPES, pH 7.4, 100 mM Kill, 0.001% Tween-20, 0.05% BASE, 20 μM TEC) to 6 fold their final concentration. The HDAC enzymes (purchased from BPS Biosciences) are diluted to 1.5 fold their final concentration in assay buffer. The dipeptide substrate and trypsin at 0.05 μM final concentration are diluted in assay buffer at 6 fold their final concentration. The final enzyme concentrations to use in these assays are 3.3 ng/ml (HDAC1), 0.2 ng/ml (HDAC2), 0.08 ng/ml (HDAC3) and 2 ng/ml (HDAC6). The final substrate concentrations to use are 16 μM (HDAC1), 10 μM (HDAC2), 17 μM (HDAC3) and 14 μM (HDAC6). Five μ1 of compound and 20 μl of enzyme are added to wells of a black, opaque 384 well plate in duplicate. Enzyme and compound are incubated together at room temperature for 10 min. Five μ1 of substrate is added to each well, the plate is shaken for 60 seconds and placed into a Victor 2 microliter plate reader. The development of fluorescence is monitored for 60 min. and the linear rate of the reaction is calculated. The IC50 is determined using Graph Pad Prism by a four parameter curve fit.
The following HDAC inhibitors were used to evaluate the relationship between HDAC selectivity and the viability of AML cell lines upon exposure to the HDAC inhibitor: […]

MV4-11 [2] = test: Surface CD11b by FACS in MV4-11; format: cell-based; conditions: single agent, 72 h
Description: (§1) The distribution of cells among G0/G1 phase, G2/M phase, S phase and subG1 phase was determined. […] The relative fraction of cells that were live, in early apoptosis, in late apoptosis, or dead was then determined.
(§2) MV4-11 cells were treated with Compound E or with Compound A or with Compound B as single agent or in combination with azacitidine at indicated doses. FIGS. 12A, 12C, and 12E show surface levels of CD11b determined by FACS at 72 h post-treatment. FIGS. 12B, 12D, and 12F show assessment of apoptosis by FACS (as in, e.g., FIG. 9C) at 96 h post-treatment.
(§3) FIG. 17. […] (A) Indicated AML cell lines were exposed to increasing concentrations of Compound J to confirm their sensitivity to HDAC1/2 inhibition. (B-D) MV4-11 cells were treated with indicated concentrations of compounds. (B) Surface levels of myeloid differentiation marker CD11b were determined by FACS at 72 h post-treatment. […] (C) Cell cycle was assessed by flow cytometry after incorporation of EdU and staining with Far Red at 72 h post-treatment. The distribution of cells among G0/G1 phase, G2/M phase, S phase and subG1 phase was determined. […] (D) Apoptosis was assessed by flow cytometry via measuring Annexin V binding and cellular permeability to propidium iodide at 96 h post-treatment. The relative fraction of cells that were live, in early apoptosis, in late apoptosis or dead was then determined.

[3] = tested on: HL-60, NB4, MV4-11, Kasumi-1, THP-1, and MOLM-13; test: Single agent activity on viability in AML cell lines; format: cell-based; conditions: for viability IC50 relative to HDAC selective range: 72 hours, six AML cell lines
Description: FIGS. 3A-D show the single agent activity on viability in AML cell lines. Briefly, each of the following cell lines: HL-60, THP-1, MV-4-11, Kasumi-1, NB4, and MOLM-13 were exposed to increasing concentrations of either Compound B (FIG. 3A), Compound A (FIG. 3B), Compound E (FIG. 3C), or azacitidine (FIG. 3D) to determine their response to drug treatment. […] The panel of cell lines was also treated with azacitidine to measure their sensitivity.
FIGS. 8A-F show the single agent activity on viability in AML cell lines. […] Viability was calculated as a percentage of control (DMSO treated cells). Growth inhibition curves were generated using GraphPad Prism 6.
FIG. 17. […] (B-D) MV4-11 cells were treated with indicated concentrations of compounds. (B) Surface levels of myeloid differentiation marker CD11b were determined by FACS at 72 h post-treatment. […] (C) Cell cycle was assessed by flow cytometry after incorporation of EdU and staining with Far Red at 72 h post-treatment. The distribution of cells among G0/G1 phase, G2/M phase, S phase and subG1 phase was determined. […] (D) Apoptosis was assessed by flow cytometry via measuring Annexin V binding and cellular permeability to propidium iodide at 96 h post-treatment. The relative fraction of cells that were live, in early apoptosis, in late apoptosis or dead was then determined.

MV4-11 [4] = test: Cell cycle by flow cytometry (EdU, Far Red) in MV4-11; format: cell-based; conditions: single agent, 72 h
Description: as §1, §3

MV4-11 [5] = test: Apoptosis by Annexin V / propidium iodide flow cytometry in MV4-11; format: cell-based; conditions: single agent, 96 h
Description: as §1, §2, §3

Kasumi-1 [6] = test: Kasumi-1 cell cycle by propidium iodide staining (sub-G1); format: cell-based; conditions: 72 hours, increasing concentrations
Description: HDAC inhibition causing AML cell death (apoptosis) was measured by staining the AML cells with propidium iodide after the cells were exposed to different concentrations of the HDAC inhibitors. Four distinct cell populations, G1, S, G2, and sub-G1, were separated and quantified based on their propidium iodide staining patterns. The sub-G1 cells are those dying or dead cells, and the percentage of this population was a reflection of the tested compound cytotoxicity.

AML1/ETO fusion protein = AML1/ETO fusion protein Western blot in Kasumi-1 cells; format: cell-based; conditions: 24 hours
Description: One type of AML has a signature chromosome translocation t(8:21) and therefore expression of a unique fusion protein AML1/ETO. […] In this study, Kasumi-1 cells were exposed to different concentrations of the HDAC inhibitor Compound A, or another HDAC1/2/6 selective inhibitor Compound G (data not shown), for 24 hours. The whole cell lysates were separated by SDS-PAGE (SDS-polyacrylamide gel electrophoresis) and transferred to a membrane (Western blot). The AML1/ETO fusion protein was detected on the membrane using an AML1 specific antibody.

[7] = tested on: AML blast freshly derived from bone marrow of AML patients; test: Ex vivo proliferation of AML blast freshly derived from bone marrow; format: cell-based; conditions: Homo sapiens; 5 bone marrow samples from AML patients; flow cytometry at 96 h; single agent; read-out: median IC50, live AML cells
Description: (A-B), 5 bone marrow samples derived from AML patients were treated with increasing concentrations of azacitidine, Compound A and Compound J and live AML cells were quantified by flow cytometry at 96 h. IC50 values (A) and AUC values (B) were plotted. […] The relative potency of the three drugs are Compound J>azacitidine>Compound A, consistent with the result in FIG. 2. (C) 5 bone marrow samples derived from AML patients were treated with increasing doses of azacitidine with Compound J and live AML cells were quantified by flow cytometry at 96 h. The combination index (Comb IDX) were calculated and median Comb IDX values were plotted.

[8] = tested on: bone marrow samples derived from AML patients; test: Primary AML sample colony formation assay; format: cell-based; conditions: Homo sapiens, 336 h; 6 bone marrow samples from AML patients; 14 days; single agent; read-out: median IC50, colony formation
Description: (A) 6 bone marrow samples derived from AML patients were cultured in methylcellulose-based medium and treated with increasing concentrations of Compound A, Compound J and azacitidine for 14 days when the colonies reach reasonable size. IC50 values for each drug are plotted. […] IC50 values were plotted for each patient sample.

HL-60 = test: Surface CD11b by FACS in HL-60; format: cell-based; conditions: single agent, 72 hours
Description: (§4) Briefly, the AML cell lines HL-60 (FIGS. 4A and 4D), Kasumi-1 (FIGS. 4B and 4E) and NB4 (FIGS. 4C and 4F) were treated with the indicated concentrations of compounds. In FIGS. 4A-C, surface levels of myeloid differentiation marker CD11b were determined by FACS at 72 hours post-treatment. […] In FIGS. 4D-F, apoptosis was assessed by flow cytometry by measuring Annexin V binding and cellular permeability to propidium iodide at 96 hours post-treatment. The relative fraction of cells that were alive, in early apoptosis, in late apoptosis, or dead was then determined.
FIGS. 5A-F show the combination of HDAC inhibitors and azacitidine in the HL-60 cell line. Briefly, cells were treated with DMSO, Compound B, Compound A, or Compound E as a single agent or in combination with azacitidine for 96 hours. Surface levels of CD11b (FIGS. 5A, 5C, 5E) and apoptosis (FIGS. 5B, 5D, 5F) was assessed by flow cytometry, as in FIG. 4.

MV4-11 cells = test: MV4-11 tumor growth and survival in Ncr nu/nu mice; format: in vivo; conditions: single agent azacitidine 5 mg/kg IV q3d; MV4-11 in Ncr nu/nu mice
Description: Ncr nu/nu mice implanted with MV4-11 cells were treated with vehicle, azacitidine (5 mg/kg IV q3d), or azacitidine (5 mg/kg IV q3d) plus Compound A (50 mg/kg IP 5/2/5/2/5/2/5) for up to 4 weeks. (A) Tumor volume was measured twice weekly and the mean tumor volume±SD is plotted. (B) Fold tumor volume change on day 19 relative to day 1 is plotted. (C) Survival curve was plotted.

HL-60, Kasumi-1 and NB4 = test: Apoptosis by Annexin V / propidium iodide flow cytometry in three AML cell lines; format: cell-based; conditions: single agent; 96 hours; HL-60, Kasumi-1, NB4
Description: as §4
FIGS. 10A-F show the treatment of the following AML cell lines: Kasumi-1 (FIGS. 10A and 10B), HL-60 (FIGS. 10C and 10D) and NB4 (FIGS. 10E and 10F), with indicated doses of compounds. FIGS. 10A, 10C, and 10E show surface levels of myeloid differentiation marker CD11b determined by FACS at 72 h post-treatment. […] FIGS. 10B, 10D, and 10F show the assessment of apoptosis by FACS (see, e.g., FIG. 9C).

Kasumi-1 [9] = test: Surface CD11b by FACS in Kasumi-1; format: cell-based; conditions: single agent, 72 hours
Description: as §4
Briefly, cells were treated with DMSO, Compound B, Compound A, or Compound E as a single agent or in combination with azacitidine at the indicated concentrations. Surface levels of CD11b were determined 72 hours post-treatment (FIGS. 6A, 6C, 6E), and apoptosis was assessed 96 hours post-treatment (FIGS. 6B, 6D, 6F).

GATA2 = GATA2 expression in MV4-11 AML cell line; format: cell-based; conditions: single agent at 1 uM, 48 h and 72 h
Description: FIG. 16. […] (A-B) MV4-11 cells were plated at 2×10^5 cells/ml at indicated doses for 48 h and 72 h. RNA was prepared and analyzed for GATA2 and GAPDH as internal control.

NB4 = test: Surface CD11b by FACS in NB4; format: cell-based; conditions: single agent, 72 hours
Description: as §4
FIGS. 7A-F show the combination of HDAC inhibitors and azacitidine in the NB4 cell line. Briefly, cells were treated with DMSO, Compound B, Compound A, or Compound E as single agent or in combination with azacitidine at the indicated concentrations. Surface levels of CD11b were determined 72 hours post-treatment (FIGS. 7A, 7C, 7E), and apoptosis was assessed 96 hours post-treatment (FIGS. 7B, 7D, 7F).

| viability IC50 relative to HDAC selective range [3] | Structure (SMILES) | Selectivity [1] | percentage of CD11b positive cells (MV4-11 [2]) | cell cycle arrest (MV4-11 [4]) | apoptosis relative to control cells (MV4-11 [5]) | IC50 [7] [nM] | IC50 [8] [nM] | other results |
| --- | --- | --- | --- | --- | --- | --- | --- | --- |
| beyond its selective range | O=C(NO)c1cnc(NC2(c3cccc(F)c3)CCCCC2)nc1 [Compound C, 2-((1-(3-fluorophenyl)cyclohexyl)amino)-N-hydroxypyrimidine-5-carboxamide] | HDAC6 | no effect on CD11b positive cells |  |  |  |  |  |
| beyond its selective range | Nc1cc(F)ccc1NC(=O)c1cnc2c(C3CC3)c(N3CCNCC3)ccc2c1 [Compound H] | HDAC3 | increased the percentage of CD11b positive cells |  |  |  |  |  |
|  | Nc1ccc(-c2cccs2)cc1NC(=O)c1ccc2nc(N3CCNCC3)ccc2c1 [Compound J, N-(2-amino-5-(thiophen-2-yl)phenyl)-2-(piperazin-1-yl)quinoline-6-carboxamide] |  | highest potency increasing percentage of CD11b positive cells | induced cell cycle arrest as well as apoptosis | increase in apoptosis relative to control cells | 600 | 2950 | cell viability ([3]; AML cell lines): reduces cell viability |
|  | Nc1ncn([C@@H]2O[C@H](CO)[C@@H](O)[C@H]2O)c(=O)n1 [azacitidine, 4-amino-1-β-D-ribofuranosyl-S-triazin-2(1H)-one, reference compound] |  |  |  |  | 2100 | 8110 | CD11b positive cells (HL-60): increased CD11b positive cells; survival (MV4-11 cells): increased survival; tumor growth (MV4-11 cells): reduced tumor growth; apoptosis relative to control cells (HL-60, Kasumi-1 and NB4): increase in apoptosis relative to control cells; CD11b positive cells (Kasumi-1 [9]): increased CD11b positive cells; GATA2 level (GATA2): induced GATA2 level; CD11b positive cells (NB4): minimal effects |

| Structure (SMILES) | viability IC50 relative to HDAC selective range [3] | Selectivity [1] | percentage of CD11b positive cells (MV4-11 [2]) | cell cycle arrest (MV4-11 [4]) | apoptosis relative to control cells (MV4-11 [5]) | IC50 [7] [nM] | IC50 [8] [nM] | other results |
| --- | --- | --- | --- | --- | --- | --- | --- | --- |
| O=C(NO)c1cnc(NC2(c3ccccc3)CCN(C(=O)Nc3ccccc3)CC2)nc1 [Compound G, N-hydroxy-2-((4-phenyl-1-(phenylcarbamoyl)piperidin-4-yl)amino)pyrimidine-5-carboxamide] | has some inhibitory effects on HDAC1/2 at their IC50 values | HDAC6 (1/2) | increased the percentage of CD11b positive cells | induced cell cycle arrest | increase in apoptosis relative to control cells |  |  | sub-G1 cells (dying or dead cells) (Kasumi-1 [6]): Increased amount of sub-G1 cells; amount of AML1/ETO fusion protein (AML1/ETO fusion protein): decrease the amount of this fusion protein in a concentration dependent manner |

Source: patent US9833466B2, “Treatment of leukemia with histone deacetylase inhibitors” (Acetylon Pharmaceuticals Inc., priority 2014, dated 2017)
